compound,measurement,setting,value
CNC(=O)NC,solubility (mole fraction),"in acetone, 288.15 K",0.129
same,solubility (mole fraction),"in acetone, 293.15 K",0.152
same,solubility (mole fraction),"in acetone, 298.15 K",0.177
same,solubility (mole fraction),"in acetone, 303.15 K",0.202
same,solubility (mole fraction),"in acetone, 308.15 K",0.228
same,solubility (mole fraction),"in acetone, 313.15 K",0.261
same,solubility (mole fraction),"in acetone, 318.15 K",0.301
same,solubility (mole fraction),"in acetone, 323.15 K",0.339
same,solubility (mole fraction),"in acetone, 328.15 K",0.376
same,solubility (mole fraction),"in acetonitrile, 288.15 K",0.102
same,solubility (mole fraction),"in acetonitrile, 293.15 K",0.128
same,solubility (mole fraction),"in acetonitrile, 298.15 K",0.151
same,solubility (mole fraction),"in acetonitrile, 303.15 K",0.186
same,solubility (mole fraction),"in acetonitrile, 308.15 K",0.216
same,solubility (mole fraction),"in acetonitrile, 313.15 K",0.25
same,solubility (mole fraction),"in acetonitrile, 318.15 K",0.282
same,solubility (mole fraction),"in acetonitrile, 323.15 K",0.322
same,solubility (mole fraction),"in acetonitrile, 328.15 K",0.363
same,solubility (mole fraction),"in ethyl acetate, 288.15 K",0.0302
same,solubility (mole fraction),"in ethyl acetate, 293.15 K",0.0421
same,solubility (mole fraction),"in ethyl acetate, 298.15 K",0.0608
same,solubility (mole fraction),"in ethyl acetate, 303.15 K",0.0825
same,solubility (mole fraction),"in ethyl acetate, 308.15 K",0.111
same,solubility (mole fraction),"in ethyl acetate, 313.15 K",0.14
same,solubility (mole fraction),"in ethyl acetate, 318.15 K",0.175
same,solubility (mole fraction),"in ethyl acetate, 323.15 K",0.22
same,solubility (mole fraction),"in ethyl acetate, 328.15 K",0.271
same,solubility (mole fraction),"in isopropanol, 288.15 K",0.331
same,solubility (mole fraction),"in isopropanol, 293.15 K",0.352
same,solubility (mole fraction),"in isopropanol, 298.15 K",0.372
same,solubility (mole fraction),"in isopropanol, 303.15 K",0.39
same,solubility (mole fraction),"in isopropanol, 308.15 K",0.416
same,solubility (mole fraction),"in isopropanol, 313.15 K",0.438
same,solubility (mole fraction),"in isopropanol, 318.15 K",0.471
same,solubility (mole fraction),"in isopropanol, 323.15 K",0.5
same,solubility (mole fraction),"in isopropanol, 328.15 K",0.533
same,solubility (mole fraction),"in n-butyl acetate, 288.15 K",0.0137
same,solubility (mole fraction),"in n-butyl acetate, 293.15 K",0.0205
same,solubility (mole fraction),"in n-butyl acetate, 298.15 K",0.0296
same,solubility (mole fraction),"in n-butyl acetate, 303.15 K",0.0408
same,solubility (mole fraction),"in n-butyl acetate, 308.15 K",0.0602
same,solubility (mole fraction),"in n-butyl acetate, 313.15 K",0.0834
same,solubility (mole fraction),"in n-butyl acetate, 318.15 K",0.111
same,solubility (mole fraction),"in n-butyl acetate, 323.15 K",0.148
same,solubility (mole fraction),"in n-butyl acetate, 328.15 K",0.195
same,solubility (mole fraction),"in sec-butanol, 288.15 K",0.325
same,solubility (mole fraction),"in sec-butanol, 293.15 K",0.353
same,solubility (mole fraction),"in sec-butanol, 298.15 K",0.381
same,solubility (mole fraction),"in sec-butanol, 303.15 K",0.412
same,solubility (mole fraction),"in sec-butanol, 308.15 K",0.438
same,solubility (mole fraction),"in sec-butanol, 313.15 K",0.46
same,solubility (mole fraction),"in sec-butanol, 318.15 K",0.494
same,solubility (mole fraction),"in sec-butanol, 323.15 K",0.523
same,solubility (mole fraction),"in sec-butanol, 328.15 K",0.561
same,solubility (mole fraction),"in water, 288.15 K",0.362
same,solubility (mole fraction),"in water, 293.15 K",0.38
same,solubility (mole fraction),"in water, 298.15 K",0.405
same,solubility (mole fraction),"in water, 303.15 K",0.436
same,solubility (mole fraction),"in water, 308.15 K",0.464
same,solubility (mole fraction),"in water, 313.15 K",0.494
same,solubility (mole fraction),"in water, 318.15 K",0.533
same,solubility (mole fraction),"in water, 323.15 K",0.57
same,solubility (mole fraction),"in water, 328.15 K",0.601
